# Reference: PubChem BioAssay AID2060616 (Molecular Pharmacology Branch, DTP, NCI, 2025)
# pIC50: −log10 of the molar value.
# Tested on: 377384-186-R-J1-PDC complex spheroid viability
# Assay: Anticancer human tumor 377384-186-R-J1-PDC patient-derived pancreatic carcinoma cell line growth inhibition [CLK]
# Conditions: for pIC50: curve of first compound; for viability, T/C: stronger effect = lower value
# Outline: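 Multi-cell-type spheroids combined patient-derived tumor cells with HUVEC endothelial cells and human mesenchymal stem cells. Paired agents were dosed in half-log steps down from about clinical Cmax, or from 10 microM where Cmax was unknown.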
# 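Further: spheroids exposed to agents for 7 days before reading.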
# 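Wherever viability, T/C is given: luminescence signal used as a stand-in for viable cells.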
smiles,measurement,setting,value
CC1COCCN1c1cc(C2(S(C)(=N)=O)CC2)nc(-c2ccnc3[nH]ccc23)n1 (centres undefined) + CNC(=O)c1ccc(Nc2nc(OC3CCCC3)c3c(-c4ccc5nc(C)oc5c4)c[nH]c3n2)c(OC)c1,pIC50,second compound 0.0316 µM,5.59
same,pIC50,second compound 0.1 µM,6.63
same,pIC50,second compound 0.316 µM,> 7.50
same,pIC50,second compound 1 µM,> 7.50
same,pIC50,second compound 3.16 µM,> 7.50
same,pIC50,second compound 10 µM,> 7.50
same,"viability, T/C","second compound 0.0316 µM, first compound 0.0316 µM",105%
same,"viability, T/C","second compound 0.0316 µM, first compound 0.1 µM",110%
same,"viability, T/C","second compound 0.0316 µM, first compound 0.316 µM",106%
same,"viability, T/C","second compound 0.0316 µM, first compound 1 µM",83.5%
same,"viability, T/C","second compound 0.0316 µM, first compound 3.16 µM",43.5%
same,"viability, T/C","second compound 0.0316 µM, first compound 10 µM",17.4%
same,"viability, T/C","second compound 0.1 µM, first compound 0.0316 µM",62.4%
same,"viability, T/C","second compound 0.1 µM, first compound 0.1 µM",56.8%
same,"viability, T/C","second compound 0.1 µM, first compound 0.316 µM",52%
same,"viability, T/C","second compound 0.1 µM, first compound 1 µM",41.1%
same,"viability, T/C","second compound 0.1 µM, first compound 3.16 µM",23.7%
same,"viability, T/C","second compound 0.1 µM, first compound 10 µM",19.9%
same,"viability, T/C","second compound 0.316 µM, first compound 0.0316 µM",21.3%
same,"viability, T/C","second compound 0.316 µM, first compound 0.1 µM",23.4%
same,"viability, T/C","second compound 0.316 µM, first compound 0.316 µM",18.6%
same,"viability, T/C","second compound 0.316 µM, first compound 1 µM",16.9%
same,"viability, T/C","second compound 0.316 µM, first compound 3.16 µM",13.8%
same,"viability, T/C","second compound 0.316 µM, first compound 10 µM",9.16%
same,"viability, T/C","second compound 1 µM, first compound 0.0316 µM",20.6%
same,"viability, T/C","second compound 1 µM, first compound 0.1 µM",20.9%
same,"viability, T/C","second compound 1 µM, first compound 0.316 µM",22.3%
same,"viability, T/C","second compound 1 µM, first compound 1 µM",17.9%
same,"viability, T/C","second compound 1 µM, first compound 3.16 µM",12%
same,"viability, T/C","second compound 1 µM, first compound 10 µM",7.93%
same,"viability, T/C","second compound 3.16 µM, first compound 0.0316 µM",20.2%
same,"viability, T/C","second compound 3.16 µM, first compound 0.1 µM",21.2%
same,"viability, T/C","second compound 3.16 µM, first compound 0.316 µM",20.6%
same,"viability, T/C","second compound 3.16 µM, first compound 1 µM",18.9%
same,"viability, T/C","second compound 3.16 µM, first compound 3.16 µM",14.1%
same,"viability, T/C","second compound 3.16 µM, first compound 10 µM",9.68%
same,"viability, T/C","second compound 10 µM, first compound 0.0316 µM",20.4%
same,"viability, T/C","second compound 10 µM, first compound 0.1 µM",19%
same,"viability, T/C","second compound 10 µM, first compound 0.316 µM",21.5%
same,"viability, T/C","second compound 10 µM, first compound 1 µM",19.4%
same,"viability, T/C","second compound 10 µM, first compound 3.16 µM",12.4%
same,"viability, T/C","second compound 10 µM, first compound 10 µM",9.21%
NC(=O)C(=Cn1cnc(-c2cc(C(F)(F)F)cc(C(F)(F)F)c2)n1)c1cncnc1 + CNC(=O)c1ccc(Nc2nc(OC3CCCC3)c3c(-c4ccc5nc(C)oc5c4)c[nH]c3n2)c(OC)c1,pIC50,second compound 0.0316 µM,7.28
same,pIC50,second compound 0.1 µM,7.91
same,pIC50,second compound 0.316 µM,> 8.02
same,pIC50,second compound 1 µM,> 8.02
same,pIC50,second compound 3.16 µM,> 8.02
same,pIC50,second compound 10 µM,> 8.02
same,"viability, T/C","second compound 0.0316 µM, first compound 0.00949 µM",97.1%
same,"viability, T/C","second compound 0.0316 µM, first compound 0.03 µM",59.2%
same,"viability, T/C","second compound 0.0316 µM, first compound 0.0949 µM",40.4%
same,"viability, T/C","second compound 0.0316 µM, first compound 0.3 µM",21.2%
same,"viability, T/C","second compound 0.0316 µM, first compound 0.949 µM",5.59%
same,"viability, T/C","second compound 0.0316 µM, first compound 3 µM",2.3%
same,"viability, T/C","second compound 0.1 µM, first compound 0.00949 µM",52.9%
same,"viability, T/C","second compound 0.1 µM, first compound 0.03 µM",39.7%
same,"viability, T/C","second compound 0.1 µM, first compound 0.0949 µM",25.5%
same,"viability, T/C","second compound 0.1 µM, first compound 0.3 µM",16.1%
same,"viability, T/C","second compound 0.1 µM, first compound 0.949 µM",3.56%
same,"viability, T/C","second compound 0.1 µM, first compound 3 µM",1.95%
same,"viability, T/C","second compound 0.316 µM, first compound 0.00949 µM",19.2%
same,"viability, T/C","second compound 0.316 µM, first compound 0.03 µM",17.7%
same,"viability, T/C","second compound 0.316 µM, first compound 0.0949 µM",17.1%
same,"viability, T/C","second compound 0.316 µM, first compound 0.3 µM",8.59%
same,"viability, T/C","second compound 0.316 µM, first compound 0.949 µM",2.04%
same,"viability, T/C","second compound 0.316 µM, first compound 3 µM",2.27%
same,"viability, T/C","second compound 1 µM, first compound 0.00949 µM",18.9%
same,"viability, T/C","second compound 1 µM, first compound 0.03 µM",20.9%
same,"viability, T/C","second compound 1 µM, first compound 0.0949 µM",16.2%
same,"viability, T/C","second compound 1 µM, first compound 0.3 µM",7.4%
same,"viability, T/C","second compound 1 µM, first compound 0.949 µM",1.54%
same,"viability, T/C","second compound 1 µM, first compound 3 µM",0.93%
same,"viability, T/C","second compound 3.16 µM, first compound 0.00949 µM",18.7%
same,"viability, T/C","second compound 3.16 µM, first compound 0.03 µM",18.7%
same,"viability, T/C","second compound 3.16 µM, first compound 0.0949 µM",15.5%
same,"viability, T/C","second compound 3.16 µM, first compound 0.3 µM",6.58%
same,"viability, T/C","second compound 3.16 µM, first compound 0.949 µM",1.89%
same,"viability, T/C","second compound 3.16 µM, first compound 3 µM",1.09%
same,"viability, T/C","second compound 10 µM, first compound 0.00949 µM",21.7%
same,"viability, T/C","second compound 10 µM, first compound 0.03 µM",17.9%
same,"viability, T/C","second compound 10 µM, first compound 0.0949 µM",12.8%
same,"viability, T/C","second compound 10 µM, first compound 0.3 µM",6.06%
same,"viability, T/C","second compound 10 µM, first compound 0.949 µM",1.42%
same,"viability, T/C","second compound 10 µM, first compound 3 µM",1.91%
